The text below walks through data of patent US20230365576A1, “BRM Targeting Compounds And Associated Methods Of Use” (Prelude Therapeutics Incorporated, priority 2022, published 2023).

For one assay, the target named is T1, SMARCA2 (Homo sapiens, UniProt P51531).
T1 construct: SMARCA2-HiBiT knock-in Hela monoclonal cell (CS302366); host or cells: HeLa (CRISPR HiBiT knock-in monoclonal line, heterozygous)
The experiment in a line: SMARCA2 HiBiT degradation assay in HeLa cells. It counts as cell-based. Particulars: 18 hours; for DC50: read-out: SMARCA2 IC50; for Dmax: HeLa. In a few lines:
(§1)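 Degradation measured as HiBiT luminescence (Nano-Glo lytic reagent) after 18 h compound exposure at 37° C. Cells were HeLa clones carrying heterozygous HiBiT tags on SMARCA2 or SMARCA4, 2500 per well; compounds at 3-fold serial dilution from 10 μM.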

The target of the next assay is T2, SMARCA4 (Homo sapiens, UniProt P51532).
T2 construct: SMARCA4-HiBiT knock-in Hela monoclonal cell (CS3023226) were purchased from Promega; host or cells: HeLa (CRISPR HiBiT knock-in monoclonal line, heterozygous)
Kind of assay: SMARCA4 HiBiT degradation assay in HeLa cells. It counts as cell-based. Particulars: 18 hours; for Dmax: HeLa. In a few lines:
as §1
Background: HiBiT is a short tag that completes a luciferase, so light tracks the accessible tagged protein.

T1 sequence (P51531 whole entry): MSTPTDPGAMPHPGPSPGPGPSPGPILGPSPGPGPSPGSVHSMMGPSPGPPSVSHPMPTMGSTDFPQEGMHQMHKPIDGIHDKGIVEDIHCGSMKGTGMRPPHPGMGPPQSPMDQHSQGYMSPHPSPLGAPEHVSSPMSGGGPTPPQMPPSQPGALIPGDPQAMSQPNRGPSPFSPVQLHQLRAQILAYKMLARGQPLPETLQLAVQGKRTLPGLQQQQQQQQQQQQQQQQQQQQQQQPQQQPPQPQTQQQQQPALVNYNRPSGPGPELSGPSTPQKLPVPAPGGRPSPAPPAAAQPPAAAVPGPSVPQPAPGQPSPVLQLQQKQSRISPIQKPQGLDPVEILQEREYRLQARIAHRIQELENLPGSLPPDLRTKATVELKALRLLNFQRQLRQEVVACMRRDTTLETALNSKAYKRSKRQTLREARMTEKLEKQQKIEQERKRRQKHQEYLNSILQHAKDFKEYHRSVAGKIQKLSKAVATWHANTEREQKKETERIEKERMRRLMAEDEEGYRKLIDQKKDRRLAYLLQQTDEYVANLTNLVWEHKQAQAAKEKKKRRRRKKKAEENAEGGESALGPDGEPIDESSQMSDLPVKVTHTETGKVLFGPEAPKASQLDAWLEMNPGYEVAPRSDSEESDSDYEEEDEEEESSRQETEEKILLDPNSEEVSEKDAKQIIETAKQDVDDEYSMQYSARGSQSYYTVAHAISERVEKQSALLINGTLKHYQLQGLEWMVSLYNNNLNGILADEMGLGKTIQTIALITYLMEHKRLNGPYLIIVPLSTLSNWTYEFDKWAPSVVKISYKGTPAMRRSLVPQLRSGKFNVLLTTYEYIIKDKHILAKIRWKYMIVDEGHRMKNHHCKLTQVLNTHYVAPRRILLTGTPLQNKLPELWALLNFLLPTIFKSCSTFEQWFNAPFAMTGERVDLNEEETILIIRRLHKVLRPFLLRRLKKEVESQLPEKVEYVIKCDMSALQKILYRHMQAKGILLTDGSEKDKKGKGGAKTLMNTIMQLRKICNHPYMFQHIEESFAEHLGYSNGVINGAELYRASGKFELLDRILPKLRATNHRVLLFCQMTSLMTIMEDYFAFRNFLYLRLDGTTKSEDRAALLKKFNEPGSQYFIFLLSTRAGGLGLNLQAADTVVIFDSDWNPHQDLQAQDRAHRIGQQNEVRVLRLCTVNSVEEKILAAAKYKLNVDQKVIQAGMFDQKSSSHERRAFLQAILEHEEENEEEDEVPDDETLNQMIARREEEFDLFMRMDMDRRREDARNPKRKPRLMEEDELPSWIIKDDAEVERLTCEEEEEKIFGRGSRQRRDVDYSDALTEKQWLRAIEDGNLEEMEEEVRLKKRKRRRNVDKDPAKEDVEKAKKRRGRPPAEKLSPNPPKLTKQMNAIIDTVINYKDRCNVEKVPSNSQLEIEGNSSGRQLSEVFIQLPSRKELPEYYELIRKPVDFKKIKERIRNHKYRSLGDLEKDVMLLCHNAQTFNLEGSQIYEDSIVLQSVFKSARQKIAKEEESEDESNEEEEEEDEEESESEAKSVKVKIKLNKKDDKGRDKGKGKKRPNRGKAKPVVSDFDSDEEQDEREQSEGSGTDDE
T2 sequence (P51532 whole entry): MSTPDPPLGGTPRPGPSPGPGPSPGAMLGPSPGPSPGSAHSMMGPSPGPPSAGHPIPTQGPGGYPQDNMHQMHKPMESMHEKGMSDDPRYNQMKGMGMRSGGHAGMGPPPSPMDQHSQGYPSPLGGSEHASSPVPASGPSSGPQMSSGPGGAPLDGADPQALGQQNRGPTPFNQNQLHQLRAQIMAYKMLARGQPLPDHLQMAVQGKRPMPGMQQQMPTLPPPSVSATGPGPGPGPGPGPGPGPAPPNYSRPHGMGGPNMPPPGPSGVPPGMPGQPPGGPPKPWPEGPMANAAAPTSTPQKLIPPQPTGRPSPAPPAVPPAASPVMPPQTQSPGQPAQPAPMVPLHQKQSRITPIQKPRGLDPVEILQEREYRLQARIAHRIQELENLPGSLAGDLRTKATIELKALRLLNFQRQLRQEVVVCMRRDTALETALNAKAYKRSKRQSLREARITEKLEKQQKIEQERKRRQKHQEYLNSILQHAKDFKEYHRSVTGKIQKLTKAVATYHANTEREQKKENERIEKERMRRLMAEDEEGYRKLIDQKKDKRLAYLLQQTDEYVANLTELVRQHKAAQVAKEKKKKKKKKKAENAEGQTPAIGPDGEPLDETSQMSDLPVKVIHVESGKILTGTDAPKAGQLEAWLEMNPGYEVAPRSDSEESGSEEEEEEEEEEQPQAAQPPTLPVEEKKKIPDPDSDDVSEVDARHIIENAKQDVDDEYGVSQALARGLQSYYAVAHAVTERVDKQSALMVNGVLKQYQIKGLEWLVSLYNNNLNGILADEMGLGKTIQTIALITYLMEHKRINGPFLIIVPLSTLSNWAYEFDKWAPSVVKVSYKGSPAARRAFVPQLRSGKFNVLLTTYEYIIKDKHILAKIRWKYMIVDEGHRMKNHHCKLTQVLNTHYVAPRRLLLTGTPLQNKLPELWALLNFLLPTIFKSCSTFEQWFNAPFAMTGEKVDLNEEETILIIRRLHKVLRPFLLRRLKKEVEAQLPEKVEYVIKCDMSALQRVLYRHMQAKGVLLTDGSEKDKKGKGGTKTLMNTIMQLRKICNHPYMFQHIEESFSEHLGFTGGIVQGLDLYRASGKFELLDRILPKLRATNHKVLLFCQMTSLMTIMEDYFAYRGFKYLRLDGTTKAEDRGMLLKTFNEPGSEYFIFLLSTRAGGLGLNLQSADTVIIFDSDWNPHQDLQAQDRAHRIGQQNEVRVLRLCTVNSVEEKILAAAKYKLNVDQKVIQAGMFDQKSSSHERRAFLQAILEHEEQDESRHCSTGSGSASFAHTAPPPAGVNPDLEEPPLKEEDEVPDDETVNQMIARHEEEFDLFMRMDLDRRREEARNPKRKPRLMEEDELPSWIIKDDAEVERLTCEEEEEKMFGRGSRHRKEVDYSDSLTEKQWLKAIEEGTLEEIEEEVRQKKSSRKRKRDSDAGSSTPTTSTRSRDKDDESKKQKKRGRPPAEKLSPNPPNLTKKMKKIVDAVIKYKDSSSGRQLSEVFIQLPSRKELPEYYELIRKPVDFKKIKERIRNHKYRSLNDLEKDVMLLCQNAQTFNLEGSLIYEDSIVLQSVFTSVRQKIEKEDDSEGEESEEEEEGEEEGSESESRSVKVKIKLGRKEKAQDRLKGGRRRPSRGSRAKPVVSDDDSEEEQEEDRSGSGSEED

Broadly, the Dmax is the greatest extent of degradation seen. Low readings indicate a partial loss of target, high ones a fuller loss of target. `CC12CNc3nnc(-c4cccc(F)c4O)cc3N1CCN(C[C@H]1CC[C@H](CN3CCN(c4ccc5c(c4)C(=O)N(C4CCC(=O)NC4=O)C5)CC3)CC1)C2` (single isomer, unassigned) [Example 115]: the DC50 on SMARCA2 and on SMARCA4 was less than 100 nM in each case. Moreover, the Dmax on SMARCA2 is greater than 75%; at SMARCA4 it was 50 to 75%.
Consider `CC12CNc3nnc(-c4cccc(F)c4O)cc3N1CCN(C[C@H]1CC[C@H](CN3CCN(c4ccc5c(c4)C(=O)N(C4CCC(=O)NC4=O)C5)CC3)CC1)C2` (single isomer, unassigned) [Example 116], for which the DC50 at SMARCA2 and at SMARCA4 was less than 100 nM throughout.
With `CC12CNc3nnc(-c4cccc(F)c4O)cc3N1CCN(C[C@H]1CC[C@H](CN3CCN(c4ccc5c(c4)C(=O)N([C@H]4CCC(=O)NC4=O)C5)CC3)CC1)C2` (single isomer, unassigned) [Example 117], on SMARCA2, the DC50 is less than 100 nM and the Dmax was greater than 75%. On SMARCA4, this compound gave a DC50 of less than 100 nM and a Dmax of 50 to 75%.
`CC12CNc3nnc(-c4cccc(F)c4O)cc3N1CCN(C[C@H]1CC[C@H](CN3CCN(c4ccc5c(c4)C(=O)N([C@H]4CCC(=O)NC4=O)C5)CC3)CC1)C2` (single isomer, unassigned) [Example 118]: the DC50 at SMARCA2 and on SMARCA4 was less than 100 nM throughout.
For the compound `C[C@@H]1C[C@H](CN2CCN(c3ccc4c(c3)C(=O)N([C@H]3CCC(=O)NC3=O)C4)CC2)C[C@H](C)N1C(=O)N1CCN2c3cc(-c4cccc(F)c4O)nnc3NCC2(C)C1` (single isomer, unassigned) [Example 120], on SMARCA2, the DC50 was less than 100 nM and the Dmax was greater than 75%. Further, at SMARCA4, the DC50 is less than 100 nM and the Dmax was greater than 75%.
As to `C[C@@H]1C[C@H](CN2CCN(c3ccc4c(c3)C(=O)N([C@H]3CCC(=O)NC3=O)C4)CC2)C[C@H](C)N1C(=O)N1CCN2c3cc(-c4cccc(F)c4O)nnc3NCC2(C)C1` (single isomer, unassigned) [Example 121], the DC50 on SMARCA2 and at SMARCA4 was less than 100 nM each time.
`CC1(C)CC(CN2CCN(c3ccc4c(c3)C(=O)N([C@H]3CCC(=O)NC3=O)C4)CC2)CCN1C(=O)N1CCN2c3cc(-c4cccc(F)c4O)nnc3NCC2(C)C1` (single isomer, unassigned) [Example 123]: at SMARCA2, the DC50 was less than 100 nM and the Dmax was greater than 75%. In addition, on SMARCA4, the DC50 was less than 100 nM and the “SMARCA4 DMax %” value is “A (A=Dmax>75%)”.
For the compound `CC1(C)CC(CN2CCN(c3ccc4c(c3)C(=O)N([C@H]3CCC(=O)NC3=O)C4)CC2)CCN1C(=O)N1CCN2c3cc(-c4cccc(F)c4O)nnc3NCC2(C)C1` (single isomer, unassigned) [Example 124], on SMARCA2, the “SMARCA2 DMax %” value is “A (A=Dmax>75%)” and the DC50 is less than 100 nM. At SMARCA4, the DC50 is less than 100 nM and the “SMARCA4 DMax %” value is on record as “B (B=50%<Dmax≤75%)”.
In the case of `C[C@@H]1CN(CC2CCN(c3ccc4c(c3)C(=O)N(C3CCC(=O)NC3=O)C4)CC2)C[C@H](C)N1C(=O)N1CCN2c3cc(-c4cccc(F)c4O)nnc3NC[C@H]2C1` (stereo partly drawn) [Example 1, 3-(6-(4-(((3R,5S)-4-((S)-2-(3-fluoro-2-hydroxyphenyl)-6,6a,7,8,9,10-hexahydro-5H-pyrazino[1′,2′:4,5]pyrazino[2,3-c]pyridazine-8-carbonyl)-3,5-dimethylpiperazin-1-yl)methyl)piperidin-1-yl)-1-oxoisoindolin-2-yl)piperidine-2,6-dione], at SMARCA2, the DC50 is less than 100 nM and the Dmax is greater than 75%. For the same compound, at SMARCA4, the DC50 was less than 100 nM and the Dmax is less than 50%.
For the compound `C[C@@H]1CN(CC2CN(c3ccc4c(c3)C(=O)N(C3CCC(=O)NC3=O)C4)C2)C[C@H](C)N1C(=O)N1CCN2c3cc(-c4cccc(F)c4O)nnc3NC[C@H]2C1` (stereo partly drawn) [Example 2, 3-(6-(3-(((3R,5S)-4-((S)-2-(3-fluoro-2-hydroxyphenyl)-6,6a,7,8,9,10-hexahydro-5H-pyrazino[1′,2′:4,5]pyrazino[2,3-c]pyridazine-8-carbonyl)-3,5-dimethylpiperazin-1-yl)methyl)azetidin-1-yl)-1-oxoisoindolin-2-yl)piperidine-2,6-dione], the DC50 at SMARCA2 and at SMARCA4 was less than 100 nM throughout. The Dmax at SMARCA2 is greater than 75%; on SMARCA4 it was less than 50%.
Consider `C[C@@H]1CN(C[C@H]2CN(c3ccc4c(c3)CN(C3CCC(=O)NC3=O)C4=O)CCO2)C[C@H](C)N1C(=O)N1CCN2c3cc(-c4cccc(F)c4O)nnc3NC[C@H]2C1` (stereo partly drawn) [Example 3, 3-(5-((S)-2-(((3R,5S)-4-((S)-2-(3-fluoro-2-hydroxyphenyl)-6,6a,7,8,9,10-hexahydro-5H-pyrazino[1′,2′:4,5]pyrazino[2,3-c]pyridazine-8-carbonyl)-3,5-dimethylpiperazin-1-yl)methyl)morpholino)-1-oxoisoindolin-2-yl)piperidine-2,6-dione], for which, at SMARCA2, the DC50 was less than 100 nM and the greatest degradation seen (Dmax) is greater than 75%. Besides, at SMARCA4, the DC50 was less than 100 nM and the Dmax was less than 50%.
On to `C[C@H]1CN2c3cc(-c4cccc(F)c4O)nnc3NC[C@H]2CN1C(=O)N1CCN(CC2CCN(c3ccc4c(c3)C(=O)N(C3CCC(=O)NC3=O)C4)CC2)CC1(C)C` (stereo partly drawn) [Example 4, 3-(6-(4-((4-((6aS,9S)-2-(3-fluoro-2-hydroxyphenyl)-9-methyl-6,6a,7,8,9,10-hexahydro-5H-pyrazino[1′,2′:4,5]pyrazino[2,3-c]pyridazine-8-carbonyl)-3,3-dimethylpiperazin-1-yl)methyl)piperidin-1-yl)-1-oxoisoindolin-2-yl)piperidine-2,6-dione], for which, on SMARCA2, the DC50 was less than 100 nM and the Dmax is greater than 75%. At SMARCA4, this compound yielded a DC50 of less than 100 nM and a Dmax of less than 50%.
Consider `CC1(C)CN(CC2CCN(c3ccc4c(c3)C(=O)N(C3CCC(=O)NC3=O)C4)CC2)CCN1C(=O)N1CCN2c3cc(-c4cccc(F)c4O)nnc3NC[C@H]2C1` (stereo partly drawn) [Example 5, 3-(6-(4-((4-((S)-2-(3-fluoro-2-hydroxyphenyl)-6,6a,7,8,9,10-hexahydro-5H-pyrazino[1′,2′:4,5]pyrazino[2,3-c]pyridazine-8-carbonyl)-3,3-dimethylpiperazin-1-yl)methyl)piperidin-1-yl)-1-oxoisoindolin-2-yl)piperidine-2,6-dione], for which, at SMARCA2, the DC50 was less than 100 nM and the Dmax was greater than 75%. At SMARCA4, the DC50 is less than 100 nM and the Dmax is less than 50%.
For the compound `C[C@@H]1CN(CC2CCN(c3ccc4c(c3)C(=O)N(C3CCC(=O)NC3=O)C4)CC2)C[C@H](C)N1C(=O)N1CCN2c3cc(-c4cc(F)cc(F)c4O)nnc3NC[C@H]2C1` (stereo partly drawn) [Example 15, 3-(6-(4-(((3R,5S)-4-((S)-2-(3,5-difluoro-2-hydroxyphenyl)-6,6a,7,8,9,10-hexahydro-5H-pyrazino[1′,2′:4,5]pyrazino[2,3-c]pyridazine-8-carbonyl)-3,5-dimethylpiperazin-1-yl)methyl)piperidin-1-yl)-1-oxoisoindolin-2-yl)piperidine-2,6-dione], on SMARCA2, the DC50 is less than 100 nM and the maximal degradation (Dmax) was greater than 75%. At SMARCA4, this compound came in with a DC50 of less than 100 nM and a Dmax of 50 to 75%.
Regarding `C[C@@H]1CN(CC2CCN(c3ccc4c(c3)C(=O)N([C@@H]3CCC(=O)NC3=O)C4)CC2)C[C@H](C)N1C(=O)N1CCN2c3cc(-c4cc(F)cc(F)c4O)nnc3NC[C@H]2C1` [Example 16, (R)-3-(6-(4-(((3S,5R)-4-((S)-2-(3,5-difluoro-2-hydroxyphenyl)-6,6a,7,8,9,10-hexahydro-5H-pyrazino[1′,2′:4,5]pyrazino[2,3-c]pyridazine-8-carbonyl)-3,5-dimethylpiperazin-1-yl)methyl)piperidin-1-yl)-1-oxoisoindolin-2-yl)piperidine-2,6-dione], the DC50 at SMARCA2 and at SMARCA4 was less than 100 nM each time. Further, the values for the Dmax at SMARCA2 and on SMARCA4 were greater than 75% and less than 50%, respectively.
For `C[C@@H]1CN(CC2CCN(c3ccc4c(c3)C(=O)N([C@H]3CCC(=O)NC3=O)C4)CC2)C[C@H](C)N1C(=O)N1CCN2c3cc(-c4cc(F)cc(F)c4O)nnc3NC[C@H]2C1` [Example 17, (S)-3-(6-(4-(((3S,5R)-4-((S)-2-(3,5-difluoro-2-hydroxyphenyl)-6,6a,7,8,9,10-hexahydro-5H-pyrazino[1′,2′:4,5]pyrazino[2,3-c]pyridazine-8-carbonyl)-3,5-dimethylpiperazin-1-yl)methyl)piperidin-1-yl)-1-oxoisoindolin-2-yl)piperidine-2,6-dione], the DC50 at SMARCA2 and at SMARCA4 was less than 100 nM in each case. In addition, the results for the Dmax on SMARCA2 and on SMARCA4 were greater than 75% and 50 to 75%, respectively.
For `CC1(C)CN(CC2CCN(c3ccc4c(c3)C(=O)N([C@H]3CCC(=O)NC3=O)C4)CC2)CCN1C(=O)N1CCN2c3cc(-c4cc(F)cc(F)c4O)nnc3NC[C@H]2C1` [Example 19, (S)-3-(6-(4-((4-((S)-2-(3,5-difluoro-2-hydroxyphenyl)-6,6a,7,8,9,10-hexahydro-5H-pyrazino[1′,2′:4,5]pyrazino[2,3-c]pyridazine-8-carbonyl)-3,3-dimethylpiperazin-1-yl)methyl)piperidin-1-yl)-1-oxoisoindolin-2-yl)piperidine-2,6-dione], the DC50 at SMARCA2 and at SMARCA4 was less than 100 nM throughout. In addition, the Dmax at SMARCA2 was greater than 75%; at SMARCA4 (given as a number), 51%.
